Source: paper PMC4834666 (ACS Medicinal Chemistry Letters, 2016)

Key:
[1] = human liver microsomes
[2] = Human hepatocyte stability; format: in vitro ADME; details: human hepatocytes
[3] = tested on: U87 MG/M human glioblastoma xenografts; details: each dose, for the duration of the xenograft study

## Cc1nc(N)ncc1-c1nc(N2CCOCC2)c2nc3n(c2n1)CCOC3(C)C [Compound 15]
[1]
  HLM Clhep: 3.1 mL/min/kg
[2]
  HH Clhep: 1.2 mL/min/kg

## COC1(c2sc3c(N4CCOCC4)nc(-c4cnc(N)nc4)nc3c2C)COC1 [Compound 2, reference compound]
[1]
  HLM Clhep: 9.8 mL/min/kg

## Cc1nc(N)ncc1-c1nc(N2CCOCC2)c2nc(C(C)(C)O)n(CCO)c2n1 [Compound 4]
[1]
  HLM Clhep: 2.8 mL/min/kg

## COC(C)(C)c1cc2nc(-c3cnc(N)nc3)nc(N3CCOCC3)c2s1 [Compound 1, reference compound]
[1]
  HLM Clhep: 10.4 mL/min/kg

## CC1(C)OCCn2c1nc1c(N3CCOCC3)nc(-c3cnc(N)nc3)nc12 [Compound 16, GDC-0084]
[1]
  HLM Clhep: 5.0 mL/min/kg
[3]
  tolerability: well tolerated
[2]
  HH Clhep: 1.0 mL/min/kg
